Literature values in patent EP1568762A1, “Detergent tablet compositions and their manufacture” (UNILEVER N.V., priority 2004, dated 2005).
Where two headings read alike, the source gives them in different places.

[1] = other common materials, by contrast, at 20°C

Structure (SMILES) | Water Solubility (g/100g) [1] [g/100g] | Water Solubility (g/100g) (highly water-soluble materials, grams of solid required to form a saturated solution in 100 grams of water at 20°C)
O=BO[O-].[Na+] [Sodium perborate anhydrous] | 3.7 | –
O=P(O)(O)OP(=O)(O)OP(=O)(O)O [Sodium tripolyphosphate anhydrous] | 15 | –
NC(N)=O [Urea] | – | >100
